In patent publication US20070049564A1 (Wyeth, priority 2005, published 2007):
≈ marks a conversion by molar mass, not a printed value. Where two headings read alike, the source gives them in different places.

Tests used:
c. albicans GC 3066 = assay: MIC, broth microdilution
Staph. = assay: Range of MIC for Staph. strains, including MRSA; details: Staphylococcus aureus, MRSA
E. faecalis GC 2265 = assay: MIC, broth microdilution; details: Enterococcus faecalis, GC2265, E. faecalis GC 2265
E. coli GC 2272 = assay: MIC, broth microdilution; details: Escherichia coli, GC2272, E. coli GC 2272
E. faecalis GC 2267 = assay: MIC, broth microdilution; details: Enterococcus faecalis, GC2267, E. faecalis GC 2267
E. coli GC 2231 = assay: MIC, broth microdilution; details: Escherichia coli, GC2231, E. coli GC 2231
S. aureus GC 2216 = assay: MIC, broth microdilution; details: Staphylococcus aureus, GC2216, S. aureus GC 2216
S. pneumoniae* GC 4465 = assay: MIC, broth microdilution; details: Streptococcus pneumoniae, S. pneumoniae* GC 4465
Protocol: (§1) Antimicrobial susceptibility testing. The in vitro activities of the antibiotics are determined by the broth microdilution method as recommended by the National Committee for Clinical Laboratory Standards (NCCLS) (1). Mueller-Hinton II broth (MHBII)(BBL Cockeysville, Md.) is the medium employed in the testing procedures. Microtiter plates containing serial dilutions of each antimicrobial agent are inoculated with each organism to yield the appropriate density (10^5 CFU/ml) in a 100 μl final volume. The plates are incubated for 18-22 hours at 35° C. in ambient air.
(§2) Representative compounds were first incubated in mouse serum for an hour prior to the in vitro testing against a panel of selected gram-positive and gram-negative bacteria strains. All compounds were also pre-incubated in water for an hour prior to testing as control. Representative compounds of Formula I were incubated in human serum prior to MIC determination.

E. coli GC 2236 = assay: MIC, broth microdilution; details: Escherichia coli, GC2236, E. coli GC 2236
E. coli = assay: Range of MIC for E. coli strains; details: Escherichia coli
Staph. aureus Smith = assay: In vivo activity (oral, iv; ED50) against Staph. aureus Smith in mice
Protocol: Representative examples of compounds of Formula I were tested for the oral efficacy using S. aureus Smith in mice.

E. faecalis GC 2242 = assay: MIC, broth microdilution; details: Enterococcus faecalis, GC2242, E. faecalis GC 2242
Protocol: as §1, §2

E. faecalis GC 4555 = assay: MIC, broth microdilution; details: Enterococcus faecalis, GC4555, E. faecalis GC 4555
E. coli GC 2232 = assay: MIC, broth microdilution; details: Escherichia coli, GC2232, E. coli GC 2232
S. aureus GC 1131 = assay: MIC, broth microdilution; details: Staphylococcus aureus, GC1131, S. aureus GC 1131
S. aureus GC 4536 = assay: MIC, broth microdilution; details: Staphylococcus aureus, GC4536, S. aureus GC 4536
P. aeruginosa GC 2214 = assay: MIC, broth microdilution; details: Pseudomonas aeruginosa, GC2214, P. aeruginosa GC 2214
E. faecium GC 2243 = assay: MIC, broth microdilution; details: Enterococcus faecium, GC2243, E. faecium GC 2243
S. epidermidis GC 4935 = assay: MIC, broth microdilution; details: Staphylococcus epidermidis, GC4935, S. epidermidis GC 4935
S. pneumoniae+ GC 4465 = assay: MIC, broth microdilution; details: Streptococcus pneumoniae, S. pneumoniae+ GC 4465
[1] = c. albicans GC 3066, Water pre-incubation
[2] = read-out: Range of MIC, Staph (Mouse Serum)
[3] = read-out: Range of MIC, Staph (Water)
[4] = read-out: Range of MIC, Staph. (mouse serum)
[5] = read-out: Range of MIC, Staph. (water)
[6] = 20 h, read-out: Range of MIC, E. coli (Mouse Serum)
[7] = read-out: Range of MIC, E. coli (Water)
[8] = read-out: Range of MIC, E. coli (mouse serum)
[9] = read-out: Range of MIC, E. coli (water)
[10] = Staphylococcus aureus, in Mus musculus, po, read-out: ED50 Staph Smith SOD
[11] = iv, read-out: ED50 Staph Smith SIV

CCCN(CC(=O)Nc1cc(N(C)C)c2c(c1O)C(=O)C1=C(O)[C@]3(O)C(=O)C(C(N)=O)=C(O)[C@@H](N(C)C)[C@@H]3C[C@@H]1C2)C(=O)OCOC(=O)c1ccc(C)cc1 [Example 5, ({[(2-{[(5aR,6aS,7S,10aS)-9-(aminocarbonyl)-4,7-bis(dimethylamino)-1,8,10a,11-tetrahydroxy-10,12-dioxo-5,5a,6,6a,7,10,10a,12-octahydrotetracen-2-yl]amino}-2-oxoethyl)(propyl)amino]carbonyl}oxy)methyl 4-methylbenzoate]
MIC (c. albicans GC 3066; Candida albicans, GC3066): > 64 µg/mL
MIC (c. albicans GC 3066; [1]): >64 UG/ML
MIC (Staph.; [2]): 0.25 to 2 µg/mL (≈ 0.327 to 2.62 µM)
MIC (Staph.; [3]): 0.5 to 4 µg/mL (≈ 0.655 to 5.24 µM)
MIC (Staph.; [4]): 0.25 to 2 µg/mL (≈ 0.327 to 2.62 µM)
MIC (Staph.; [5]): 0.5 to 4 µg/mL (≈ 0.655 to 5.24 µM)
MIC (E. faecalis GC 2265; Mouse Serum pre-incubation): 2 µg/mL (≈ 2.62 µM)
MIC (E. faecalis GC 2265; Water pre-incubation): 4 µg/mL (≈ 5.24 µM)
MIC (E. coli GC 2272; Mouse Serum pre-incubation): 1 µg/mL (≈ 1.31 µM)
MIC (E. coli GC 2272; Water pre-incubation): 32 µg/mL (≈ 41.9 µM)
MIC (E. faecalis GC 2267; Mouse Serum pre-incubation): 2 µg/mL (≈ 2.62 µM)
MIC (E. faecalis GC 2267; Water pre-incubation): 4 µg/mL (≈ 5.24 µM)
MIC (E. coli GC 2231; Mouse Serum pre-incubation): 2 µg/mL (≈ 2.62 µM)
MIC (E. coli GC 2231; Water pre-incubation): 64 µg/mL (≈ 83.8 µM)
MIC (S. aureus GC 2216; Mouse Serum pre-incubation): 0.5 µg/mL (≈ 0.655 µM)
MIC (S. aureus GC 2216; Water pre-incubation): 2 µg/mL (≈ 2.62 µM)
MIC (S. pneumoniae* GC 4465; Mouse Serum pre-incubation): < 0.06 µg/mL
MIC (S. pneumoniae* GC 4465; Water pre-incubation): 0.12 µg/mL (≈ 0.157 µM)
MIC (E. coli GC 2236; Mouse Serum pre-incubation): 2 µg/mL (≈ 2.62 µM)
MIC (E. coli GC 2236; Water pre-incubation): 16 µg/mL (≈ 20.9 µM)
MIC (E. coli; [6]): 1 to 2 µg/mL (≈ 1.31 to 2.62 µM)
MIC (E. coli; [7]): 16 to 64 µg/mL (≈ 20.9 to 83.8 µM)
MIC (E. coli; [8]): 1 to 2 µg/mL (≈ 1.31 to 2.62 µM)
MIC (E. coli; [9]): 16 to 64 µg/mL (≈ 20.9 to 83.8 µM)
ED50 (Staph. aureus Smith; Staphylococcus aureus, in Mus musculus, iv, read-out: ED50 SIV (Staph aureus Smith)): 0.5 mg/kg
ED50 (Staph. aureus Smith; Staphylococcus aureus, in Mus musculus, po, read-out: ED50 SOD (Staph aureus Smith)): 8.51 mg/kg
ED50 (Staph. aureus Smith; [10]): 8.51 mg/kg
ED50 (Staph. aureus Smith; [11]): 0.5 mg/kg
MIC (E. faecalis GC 2242; Mouse Serum pre-incubation): 1 µg/mL (≈ 1.31 µM)
MIC (E. faecalis GC 2242; Water pre-incubation): 2 µg/mL (≈ 2.62 µM)
MIC (E. faecalis GC 4555; Mouse Serum pre-incubation): 1 µg/mL (≈ 1.31 µM)
MIC (E. faecalis GC 4555; Water pre-incubation): 4 µg/mL (≈ 5.24 µM)
MIC (E. coli GC 2232; Mouse Serum pre-incubation): 2 µg/mL (≈ 2.62 µM)
MIC (E. coli GC 2232; Water pre-incubation): 32 µg/mL (≈ 41.9 µM)
MIC (S. aureus GC 1131; Mouse Serum pre-incubation): 0.5 µg/mL (≈ 0.655 µM)
MIC (S. aureus GC 1131; Water pre-incubation): 1 µg/mL (≈ 1.31 µM)
MIC (S. aureus GC 4536; Mouse Serum pre-incubation): 1 µg/mL (≈ 1.31 µM)
MIC (S. aureus GC 4536; Water pre-incubation): 1 µg/mL (≈ 1.31 µM)
MIC (P. aeruginosa GC 2214; Mouse Serum pre-incubation): 32 µg/mL (≈ 41.9 µM)
MIC (P. aeruginosa GC 2214; Water pre-incubation): > 64 µg/mL
MIC (E. faecium GC 2243; Mouse Serum pre-incubation): 0.5 µg/mL (≈ 0.655 µM)
MIC (E. faecium GC 2243; Water pre-incubation): 1 µg/mL (≈ 1.31 µM)
MIC (S. epidermidis GC 4935; Mouse Serum pre-incubation): 1 µg/mL (≈ 1.31 µM)
MIC (S. epidermidis GC 4935; Water pre-incubation): 2 µg/mL (≈ 2.62 µM)
MIC (S. pneumoniae+ GC 4465; Mouse Serum pre-incubation): 2 µg/mL (≈ 2.62 µM)
MIC (S. pneumoniae+ GC 4465; Water pre-incubation): 4 µg/mL (≈ 5.24 µM)

CCCN(CC(=O)Nc1cc(N(C)C)c2c(c1O)C(=O)C1=C(O)[C@]3(O)C(=O)C(C(N)=O)=C(O)[C@@H](N(C)C)[C@@H]3C[C@@H]1C2)C(=O)OCOC(=O)c1ccc(OC)cc1 [Example 6, ({[(2-{[(5aR,6aS,7S,10aS)-9-(aminocarbonyl)-4,7-bis(dimethylamino)-1,8,10a,11-tetrahydroxy-10,12-dioxo-5,5a,6,6a,7,10,10a,12-octahydrotetracen-2-yl]amino}-2-oxoethyl)(propyl)amino]carbonyl}oxy)methyl 4-methoxybenzoate]
MIC (c. albicans GC 3066; Candida albicans, GC3066): > 64 µg/mL
MIC (c. albicans GC 3066; [1]): >64 UG/ML
MIC (Staph.; [2]): 0.5 to 2 µg/mL (≈ 0.641 to 2.56 µM)
MIC (Staph.; [3]): 1 to 4 µg/mL (≈ 1.28 to 5.13 µM)
MIC (Staph.; [4]): 0.5 to 2 µg/mL (≈ 0.641 to 2.56 µM)
MIC (Staph.; [5]): 1 to 4 µg/mL (≈ 1.28 to 5.13 µM)
MIC (E. faecalis GC 2265; Mouse Serum pre-incubation): 2 µg/mL (≈ 2.56 µM)
MIC (E. faecalis GC 2265; Water pre-incubation): 4 µg/mL (≈ 5.13 µM)
MIC (E. coli GC 2272; Mouse Serum pre-incubation): 1 µg/mL (≈ 1.28 µM)
MIC (E. coli GC 2272; Water pre-incubation): 16 µg/mL (≈ 20.5 µM)
MIC (E. faecalis GC 2267; Mouse Serum pre-incubation): 1 µg/mL (≈ 1.28 µM)
MIC (E. faecalis GC 2267; Water pre-incubation): 4 µg/mL (≈ 5.13 µM)
MIC (E. coli GC 2231; Mouse Serum pre-incubation): 2 µg/mL (≈ 2.56 µM)
MIC (E. coli GC 2231; Water pre-incubation): 64 µg/mL (≈ 82.1 µM)
MIC (S. aureus GC 2216; Mouse Serum pre-incubation): 0.5 µg/mL (≈ 0.641 µM)
MIC (S. aureus GC 2216; Water pre-incubation): 2 µg/mL (≈ 2.56 µM)
MIC (S. pneumoniae* GC 4465; Mouse Serum pre-incubation): 0.12 µg/mL (≈ 0.154 µM)
MIC (S. pneumoniae* GC 4465; Water pre-incubation): 0.25 µg/mL (≈ 0.321 µM)
MIC (E. coli GC 2236; Mouse Serum pre-incubation): 2 µg/mL (≈ 2.56 µM)
MIC (E. coli GC 2236; Water pre-incubation): 8 µg/mL (≈ 10.3 µM)
MIC (E. coli; [6]): 1 to 2 µg/mL (≈ 1.28 to 2.56 µM)
MIC (E. coli; [7]): 8 to 64 µg/mL (≈ 10.3 to 82.1 µM)
MIC (E. coli; [8]): 1 to 2 µg/mL (≈ 1.28 to 2.56 µM)
MIC (E. coli; [9]): 8 to 64 µg/mL (≈ 10.3 to 82.1 µM)
ED50 (Staph. aureus Smith; [10]): 20.1 mg/kg
ED50 (Staph. aureus Smith; [11]): 0.87 mg/kg
MIC (E. faecalis GC 2242; Mouse Serum pre-incubation): 1 µg/mL (≈ 1.28 µM)
MIC (E. faecalis GC 2242; Water pre-incubation): 2 µg/mL (≈ 2.56 µM)
MIC (E. faecalis GC 4555; Mouse Serum pre-incubation): 1 µg/mL (≈ 1.28 µM)
MIC (E. faecalis GC 4555; Water pre-incubation): 4 µg/mL (≈ 5.13 µM)
MIC (E. coli GC 2232; Mouse Serum pre-incubation): 2 µg/mL (≈ 2.56 µM)
MIC (E. coli GC 2232; Water pre-incubation): 32 µg/mL (≈ 41 µM)
MIC (S. aureus GC 1131; Mouse Serum pre-incubation): 0.5 µg/mL (≈ 0.641 µM)
MIC (S. aureus GC 1131; Water pre-incubation): 1 µg/mL (≈ 1.28 µM)
MIC (S. aureus GC 4536; Mouse Serum pre-incubation): 0.5 µg/mL (≈ 0.641 µM)
MIC (S. aureus GC 4536; Water pre-incubation): 2 µg/mL (≈ 2.56 µM)
MIC (P. aeruginosa GC 2214; Mouse Serum pre-incubation): 32 µg/mL (≈ 41 µM)
MIC (P. aeruginosa GC 2214; Water pre-incubation): > 64 µg/mL
MIC (E. faecium GC 2243; Mouse Serum pre-incubation): 0.5 µg/mL (≈ 0.641 µM)
MIC (E. faecium GC 2243; Water pre-incubation): 2 µg/mL (≈ 2.56 µM)
MIC (S. epidermidis GC 4935; Mouse Serum pre-incubation): 1 µg/mL (≈ 1.28 µM)
MIC (S. epidermidis GC 4935; Water pre-incubation): 4 µg/mL (≈ 5.13 µM)
MIC (S. pneumoniae+ GC 4465; Mouse Serum pre-incubation): 2 µg/mL (≈ 2.56 µM)
MIC (S. pneumoniae+ GC 4465; Water pre-incubation): 2 µg/mL (≈ 2.56 µM)
